Measured values reported in patent US20260335293A1, “USE OF NOVEL COMPOUND FOR TREATING INTRACTABLE DISEASES” (YJ CERAPEUTICS INC., priority 2023, published 2026).

Columns and labels:
[1] = test system: psoriasis (IMQ psoriasis animal model); experiment: Erythema and scaling (PASI) in IMQ psoriasis model; type: in vivo, C57BL/6 mouse
Protocol: Psoriasis caused by excessive production of skin cells was a chronic skin disease associated with various factors, including autoimmune diseases, and its symptoms included red and thickened skin and abnormally occurring scaling. […] Specifically, the back region of a C57BL/6 mouse (male, 18 to 20 g, 8 weeks) (Daehan Biolink, Eumseong, Korea) was shaved to remove hair, and then applied with IMQ cream (83 mg/day) (5%) for consecutive 5 days from Day 0 to Day 4 to induce psoriasis-like skin inflammation, and a normal control mouse (Sham) was applied with Vaseline cream (FIG. 16A).
In order to confirm the effect of YJ102 (Chemical Formula 1), a compound of the present disclosure, on psoriasis, YJ102 dissolved in DMSO, methyl pyrrolidinone, and water (1:1.5:1) was administered intraperitoneally (5 mg/kg) for a total of 3 days on Day 2, Day 3, and Day 4, and the Vehicle group was administered in the same amount of a solution of DMSO, methyl pyrrolidinone, and water (1:1.5:1) (FIG. 16A). To assess daily skin changes, PASI scores were used for erythema and scaling. The PASI score was evaluated as a severity scale of 0 to 4, in which 0 meant none, 1 meant mild, 2 meant moderate, 3 meant severe, and 4 meant very severe. (PASI Reference: Yashpal Manchanda, Abhishek De, Sudip Das, and Disha Chakraborty. Disease Assessment in Psoriasis. Indian J Dermatol. 2023 May-June; 68 (3): 278-281.)

[2] = test system: neuropathic pain (mechanical allodynia) in SCI, LSS and SNI animal models; experiment: Mechanical allodynia (von Frey, 50% threshold) in SCI, LSS and SNI neuropathic pain models; type: in vivo, Sprague-Dawley rats
Protocol: To be used as a central nerve injury animal model, a traumatic spinal cord injury (SCI) model was prepared (FIG. 1A). Specifically, 230 to 250 g of male adult Sprague-Dawley rats were anesthetized by intraperitoneal injection of chloral hydrate (500 mg/kg), and then the back and neck regions were shaved, and the spinal cord under the back and neck regions was exposed without damaging the dura mater, and a laminectomy was performed at T9 to T10 levels. To stabilize the spine, the spinous processes of T8 and T11 were fixed, and the spine was damaged by free-falling a 10 g weight from a height of 25 mm using an NYU impactor onto the back surface of the exposed spinal cord and then the rats were left in a temperature and humidity-controlled chamber overnight while covering the muscles and skin. After surgery, the rats were subcutaneously injected with a supplement solution (5 ml, lactated ringer) and injected with antibiotics (gentamicin, 5 mg/kg, intramuscular injection) once daily for 5 days. The body weight, remaining food, and the weight of water were confirmed and recorded for all animals, and the bladder was emptied twice daily by passive bladder massage until reflex micturition was established. At this time, a Sham group was a group that was subjected to only laminectomy without damage.
To be used as a peripheral nerve injury animal model, a lumbar spinal stenosis (LSS) model was prepared (FIG. 1B). Specifically, 260 to 280 g of adult male Sprague-Dawley rats were anesthetized with intraperitoneal injection of chloral hydrate (500 mg/kg), the back region was shaved, and then the spinal plate was exposed at L4 to S2 levels. After removing the ligamentous section between L4 and L5, a trapezoidal silicone block (1.00 mm long×1.3 to 1.2 mm wide×1.0 mm high) was inserted into the epidural space below the L5 and L6 spinal plates without damaging the dural sac. At this time, a Sham group was a group that was subjected to only posterior […] on the animal without inserting a silicone block.
To be used as a peripheral nerve injury animal model, a sciatic nerve injury (SNI) model was prepared (FIG. 1C). Specifically, 200 to 220 g of male adult Sprague-Dawley rats were anesthetized by intraperitoneal injection of chloral hydrate (500 mg/kg), and then three terminal branches (tibial, common peroneal, and sural nerves) of the right sciatic nerve were approached, and the tibia nerve and the peroneal nerve were tightly ligated with 4-0 silk, and neurectomy was performed at a distal 3 mm position of the ligation site. At this time, a Sham group was a group that exposed only the sciatic nerve without damage.
In order to confirm a neuropathic pain inhibitory effect of YJ102 (Chemical Formula 1), a compound of the present disclosure, in the three nerve injury animal models prepared in Example 1 above, rats having pain on week 3 (SNI model) or week 4 (SCI model and LSS model) after surgery were selected and administered orally (p.o.) at 10 mg/kg or 20 mg/kg of YJ102 dissolved in a solution of DMSO, methyl pyrrolidinone, and water (1:1.5:1), or intraperitoneally injected (i.p. injection) at 1, 2, or 5 mg/kg of YJ102. In a positive control group, gabapentin or pregabalin dissolved in saline was intraperitoneally injected at a concentration of 5 mg/kg, and in a Vehicle group, the same amount of a solution of DMSO, methyl pyrrolidinone, and water was administered. Thereafter, in order to measure mechanical allodynia, the rats were located at the bottom of a transparent plastic box (10 cm×10 cm) on top of a wire mesh (3 mm×3 mm) and subjected to an adaptation period for approximately 20 minutes. Von-Frey filaments were applied to the soles of both paws and used with stiff nylon von-Frey monofilament series ([…], Stoelting, WoodDale, IL, USA; equivalent in grams to 0.4, 0.6, 1.0, 2.0, 4.0, 6.0, 8.0 and 15.0) with logarithmic increases in tactile (mechanical) sensitivity. […]

[3] = test system: ED-1-positive macrophages; experiment: Introduction of macrophages (ED-1) into bladder of SCI model, immunofluorescence; type: in vivo, Sprague-Dawley rats; details: day 7 after SCI
[4] = 5 mg/kg i.p. Days 2-4, vs Vehicle
[5] = p.o. 10 mg/kg or 20 mg/kg, all three models (SCI, LSS, SNI)

For `CCc1ccc(N(C(=O)COC)c2nc3cc(Cl)ccc3o2)cc1` [YJ102], the “symptoms (erythema and scaling) on Day 6” value ([1]; 5 mg/kg i.p. Days 2-4, Day 6) was “appeared to be alleviated”, the “degree of erythema (PASI)” value [1, 4] was “significantly lower than that of the Vehicle group” and the “degree of scaling (PASI)” value [1, 4] was “significantly lower than that of the Vehicle group”. For the same molecule, the “duration of analgesic effect relative to existing drugs (gabapentin, pregabalin)” value ([2]; i.p.) was “more than three times longer”, the “analgesic effect relative to gabapentin or pregabalin” value ([2]; i.p., at the same concentration as gabapentin or pregabalin) was “more than twice as high” and the “duration of analgesic effect” value [2, 5] was at least 4 h. For the same molecule, the “mechanical allodynia threshold increased from (time after administration)” value [2, 5] was 30 min and the “introduction of ED-1-positive macrophages into the bladder” value [3] was “significantly inhibited”.
